In US4931391A, “Method for preservation of nitrile hydration activity” (Mitsubishi Rayon Kabushiki Kaisha, priority 1986, dated 1990):
Read-outs that look alike come from different tables or passages of the source.

Columns and labels:
[1] = target: T1, (Rhodococcus erythropolis, UniProt P13448+P13449); test: Preservation of nitrile hydration activity of cell extract prepared as in Comparison Example 1, stabilizer added to extract; type: biochemical, Corynebacterium strain N-774(FERM P-4446)
T1 sequence (P13448 2-207 limits assumed): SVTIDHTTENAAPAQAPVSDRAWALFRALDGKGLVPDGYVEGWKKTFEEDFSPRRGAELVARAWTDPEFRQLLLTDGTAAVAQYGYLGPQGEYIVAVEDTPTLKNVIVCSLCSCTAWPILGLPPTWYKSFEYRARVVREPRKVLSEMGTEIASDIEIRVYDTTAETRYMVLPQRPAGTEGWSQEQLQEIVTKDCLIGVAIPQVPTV
T1 sequence (P13449 1-212): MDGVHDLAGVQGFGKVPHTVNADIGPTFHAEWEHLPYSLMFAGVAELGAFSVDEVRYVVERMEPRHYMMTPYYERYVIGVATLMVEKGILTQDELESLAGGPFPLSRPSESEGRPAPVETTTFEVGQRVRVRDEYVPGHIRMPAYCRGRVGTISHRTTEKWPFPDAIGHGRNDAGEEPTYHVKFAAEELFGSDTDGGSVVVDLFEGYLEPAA

immobilized nitrilase = immobilized nitrilase (Rhodococcus erythropolis, UniProt P13448+P13449); test: Preservation of nitrile hydration activity of immobilized enzyme (polyacrylamide gel); type: biochemical, Corynebacterium strain N-774(FERM P-4446); conditions: 0° C., 20 minutes
Description: 40 ml of a cell extract prepared as in Example 1, 4.5 g of acrylamide, 0.5 g of N,N'-methylenebisacrylamide, and 40 ml of M/20 phosphate buffer (containing 10 g/l of ammonium isobutyrate, pH 6.0) were mixed to form a homogeneous suspension. To this suspension were added 5 ml of a 5% aqueous solution of dimethylaminopropionitrile and 10 ml of a 1.0% aqueous solution of potassium persulfate, and the mixture was maintained at 10° C. for 30 minutes to cause polymerization. A mass of cell-containing gel obtained was crushed into small particles, which were thoroughly washed with M/20 phosphate buffer containing 5 g/l of ammonium isobutyrate, pH 7.0, whereby approximately 90 g of an immobilized enzyme was obtained.
The washed, immobilized enzyme thus obtained was placed in the same buffer containing 5 g/l of isobutyric acid and left standing at 20° C. for 3 days.
The nitrile hydration activity levels of the gel samples were measured as follows before and after the respective immobilized enzymes were left standing.
1 g of immobilized gel was mixed with 5 g of acrylonitrile and 97 ml of M/20 phosphate buffer (pH 7.7), and the mixture was subjected to reaction at 0° C. for 20 minutes with stirring. The quantities of acrylamide in the respective reaction solutions were determined by gas chromatography.

[2] = 48 h; 10 mg organic acid in 2.5 ml buffer + 2.5 ml extract; pH 6.5; 20° C. for 2 days; read-out: % Residual Activity (Organic Acid Added)
[3] = 48 h; 10 mg amide in 2.5 ml buffer + 2.5 ml extract; pH 6.5; 20° C. for 2 days; read-out: % Residual Activity (Amide Added)
[4] = 48 h, pH 6.5, read-out: % Residual Activity (Organic Acid Added)
[5] = 48 h, pH 6.5; read-out: % Residual Activity (Amide Added)
[6] = 48 h, pH 6.5; read-out: % Residual Activity (Organic Acid Added)
[7] = 48 h, pH 6.5; read-out: % Residual Activity (Nitrile Added)
[8] = 48 h; 10 mg nitrile in 2.5 ml buffer + 2.5 ml extract (0.8×10^3 U/ml); pH 6.5; 20° C. for 2 days; read-out: % Residual Activity (Nitrile Added)
[9] = pH 6, read-out: % Residual Activity
[10] = stabilizer concentration 0.01 g/l; pH 6.0; extract 0.7×10^3 U/ml; 20° C. for 2 days; read-out: % Residual Activity
[11] = stabilizer concentration 5.0 g/l; pH 6.0; extract 0.7×10^3 U/ml; 20° C. for 2 days; read-out: % Residual Activity
[12] = stabilizer concentration 20 g/l; pH 6.0; […]; 20° C. for 2 days; read-out: % Residual Activity
[13] = stabilizer concentration 50 g/l; pH 6.0; extract 0.7×10^3 U/ml; 20° C. for 2 days; read-out: % Residual Activity
[14] = 48 h, pH 6, read-out: % Residual Activity
[15] = 48 h, pH 7, read-out: % Residual Activity
[16] = stabilizer concentration 1.0 g/l; pH 6.0; […]; 20° C. for 2 days; read-out: % Residual Activity

## O=C(O)C(O)CO (racemic) [DL-Glyceric acid]
[1]; [2]
  activity at 2000 µg/mL: 60%

## CC(N)=O [Acetamide]
[1]; [3]
  activity at 2000 µg/mL: 57%

## CC(=O)O [Acetic acid]
[1]; [4]
  activity at 2000 µg/mL: 55%

## CC#N [Acetonitrile]
[1]; 48 h, pH 6.5, read-out: % Residual Activity (Nitrile Added)
  activity at 2000 µg/mL: 61%

## C=CC(N)=O [Acrylamide]
[1]; [5]
  activity at 2000 µg/mL: 63%

## C=CC(=O)O [Acrylic acid]
[1]; [6]
  activity at 2000 µg/mL: 53%

## C=CC#N [Acrylonitrile]
[1]; [7]
  activity at 2000 µg/mL: 56%

## N#CCCCCC#N [Adiponitrile]
[1]; [7]
  activity at 2000 µg/mL: 68%

## NC(=O)c1ccccc1 [Benzamide]
[1]; [3]
  activity at 2000 µg/mL: 47%

## O=C(O)c1ccccc1 [Benzoic acid]
[1]; [6]
  activity at 2000 µg/mL: 48%

## N#Cc1ccccc1 [Benzonitrile]
[1]; [8]
  activity at 2000 µg/mL: 44%

## CCCC(=O)O [Butyric acid]
[1]; [9]
  remaining activity at 100 µg/mL: 87%
[1]; [10]
  remaining activity at 10 µg/mL: 63%
[1]; stabilizer concentration 1.0 g/l; pH 6.0; extract 0.7×10^3 U/ml; 20° C. for 2 days; read-out: % Residual Activity
  remaining activity at 1000 µg/mL: 92%
[1]; [11]
  remaining activity at 5000 µg/mL: 90%
[1]; [12]
  remaining activity at 20000 µg/mL: 85%
[1]; [13]
  remaining activity at 50000 µg/mL: 67%

## CCCCCC(=O)O [Caproic acid]
[1]; [6]
  activity at 2000 µg/mL: 78%

## NC(=O)CCl [Chloroacetamide]
[1]; 48 h, pH 6.5, read-out: % Residual Activity (Amide Added)
  activity at 2000 µg/mL: 60%

## N#CCCl [Chloroacetonitrile]
[1]; [7]
  activity at 2000 µg/mL: 58%

## N#CCC(N)=O [Cyanoacetamide]
[1]; [7]
  activity at 2000 µg/mL: 53%

## N#CCC(=O)O [Cyanoacetic acid]
[1]; [8]
  activity at 2000 µg/mL: 54%

## O=CO [Formic acid]
[1]; [4]
  activity at 2000 µg/mL: 48%

## NCC(N)=O [Glycine amide]
[1]; [3]
  activity at 2000 µg/mL: 49%

## N#CCN [Glycine nitrile]
[1]; [7]
  activity at 2000 µg/mL: 58%

## O=C(O)CO [Glycolic acid]
[1]; [2]
  activity at 2000 µg/mL: 52%

## O=CC(=O)O [Glyoxylic acid]
[1]; [2]
  activity at 2000 µg/mL: 72%

## CC(C)C(N)=O [Isobutyramide]
[1]; [14]
  activity at 25 mg: 80%
[1]; 48 h, pH 7; read-out: % Residual Activity
  activity at 25 mg: 74%
[1]; [3]
  activity at 2000 µg/mL: 85%
[1]; 48 h; pH 5.0; 25 mg stabilizer in 2.5 ml buffer + 2.5 ml extract (1×10^3 U/ml); 20° C. for 2 days; read-out: % Residual Activity
  activity at 25 mg: 4%
[1]; 48 h; pH 8.0; 25 mg stabilizer in 2.5 ml buffer + 2.5 ml extract (1×10^3 U/ml); 20° C. for 2 days; read-out: % Residual Activity
  activity at 25 mg: 48%

## CC(C)C(=O)O [Isobutyric acid]
Immobilized nitrilase; after standing at 20° C. for 3 days in buffer containing 5 g/l of isobutyric acid, 1 g gel
  Quant. of AA produced (%) after enzyme was left standing: 0.60%
Immobilized nitrilase; immobilized gel, 1 g with 5 g acrylonitrile, immobilized and washed with stabilizer
  Quant. of AA produced (%) before enzyme was left standing: 0.71%
[1]; 48 h, pH 5, read-out: % Residual Activity
  activity at 25 mg: 2%
[1]; 48 h, pH 5.5, read-out: % Residual Activity
  activity at 25 mg: 82%
[1]; [14]
  activity at 25 mg: 83%
[1]; [4]
  activity at 2000 µg/mL: 83%
[1]; [15]
  activity at 25 mg: 77%
[1]; 48 h, pH 8, read-out: % Residual Activity
  activity at 25 mg: 42%

## CC(C)C#N [Isobutyronitrile]
[1]; 48 h, pH 5; read-out: % Residual Activity
  activity at 25 mg: 3%
[1]; [14]
  activity at 25 mg: 82%
[1]; [7]
  activity at 2000 µg/mL: 88%
[1]; [15]
  activity at 25 mg: 77%
[1]; 48 h, pH 8; read-out: % Residual Activity
  activity at 25 mg: 45%

## CC(O)C(N)=O (stereo not shown) [Lactamide]
[1]; [3]
  activity at 2000 µg/mL: 50%

## CC(O)C#N (stereo not shown) [Lactonitrile]
[1]; [7]
  activity at 2000 µg/mL: 49%

## O=C(O)CC(O)C(=O)O (stereo not shown) [Malic acid]
[1]; [2]
  activity at 2000 µg/mL: 43%

## NC(=O)CC(N)=O [Malondiamide]
[1]; [3]
  activity at 2000 µg/mL: 48%

## N#CCC#N [Malononitrile]
[1]; 48 h; pH 6.5; 20° C. for 2 days; read-out: % Residual Activity (Nitrile Added)
  activity at 2000 µg/mL: 55%

## C=C(C)C(N)=O [Methacrylamide]
[1]; [3]
  activity at 2000 µg/mL: 70%

## C=C(C)C(=O)O [Methacrylic acid]
[1]; [6]
  activity at 2000 µg/mL: 59%

## C=C(C)C#N [Methacrylonitrile]
[1]; [7]
  activity at 2000 µg/mL: 62%

## O=C(O)CCl [Monochloroacetic acid]
[1]; [6]
  activity at 2000 µg/mL: 39%

## NC(=O)c1cccnc1 [Nicotinamide]
[1]; [5]
  activity at 2000 µg/mL: 39%

## N#Cc1cccnc1 [Nicotinonitrile]
[1]; [7]
  activity at 2000 µg/mL: 43%

## O=C(O)CC(=O)C(=O)O [Oxalacetic acid]
[1]; [2]
  activity at 2000 µg/mL: 68%

## CCC(N)=O [Propionamide]
[1]; [3]
  activity at 2000 µg/mL: 83%

## CCC(=O)O [Propionic acid]
[1]; [4]
  activity at 2000 µg/mL: 78%

## CCC#N [Propionitrile]
[1]; [7]
  activity at 2000 µg/mL: 83%

## NC(=O)CCC(N)=O [Succindiamide]
[1]; [3]
  activity at 2000 µg/mL: 63%

## O=C(O)CCC(=O)O [Succinic acid]
[1]; [4]
  activity at 2000 µg/mL: 59%

## N#CCCC#N [Succinonitrile]
[1]; [7]
  activity at 2000 µg/mL: 70%

## CCCCC(=O)O [Valeric acid]
[1]; [2]
  activity at 2000 µg/mL: 81%

## CCCC(N)=O [n-Butyramide]
[1]; [3]
  activity at 2000 µg/mL: 90%
[1]; [9]
  remaining activity at 20000 µg/mL: 78%
[1]; [10]
  remaining activity at 10 µg/mL: 60%
[1]; stabilizer concentration 0.1 g/l; pH 6.0; […]; 20° C. for 2 days; read-out: % Residual Activity
  remaining activity at 100 µg/mL: 85%
[1]; [16]
  remaining activity at 1000 µg/mL: 85%
[1]; [11]
  remaining activity at 5000 µg/mL: 89%
[1]; [13]
  remaining activity at 50000 µg/mL: 63%

## CCCC#N [n-Butyronitrile]
[1]; [7]
  activity at 2000 µg/mL: 93%
[1]; [9]
  remaining activity at 100 µg/mL: 82%
[1]; stabilizer concentration 0.01 g/l; pH 6.0; […]; 20° C. for 2 days; read-out: % Residual Activity
  remaining activity at 10 µg/mL: 60%
[1]; [16]
  remaining activity at 1000 µg/mL: 88%
[1]; stabilizer concentration 5.0 g/l; pH 6.0; […]; 20° C. for 2 days; read-out: % Residual Activity
  remaining activity at 5000 µg/mL: 86%
[1]; [12]
  remaining activity at 20000 µg/mL: 70%

## CCCCCC(N)=O [n-Capronamide]
[1]; [3]
  activity at 2000 µg/mL: 75%

## CCCCCC#N [n-Capronitrile]
[1]; [7]
  activity at 2000 µg/mL: 71%

## CCCCC(N)=O [n-Valeramide]
[1]; [3]
  activity at 2000 µg/mL: 78%

## CCCCC#N [n-Valeronitrile]
[1]; [7]
  activity at 2000 µg/mL: 82%

## NCCC(N)=O [β-Aminopropionamide]
[1]; [3]
  activity at 2000 µg/mL: 52%

## NCCC(=O)O [β-Aminopropionic acid]
[1]; [4]
  activity at 2000 µg/mL: 45%

## N#CCCN [β-Aminopropionitrile]
[1]; [7]
  activity at 2000 µg/mL: 55%

## NC(=O)CCCl [β-Chloropropionamide]
[1]; [3]
  activity at 2000 µg/mL: 68%

## N#CCCCl [β-Chloropropionitrile]
[1]; [7]
  activity at 2000 µg/mL: 63%

## NC(=O)CCO [β-Hydroxypropionamide]
[1]; [3]
  activity at 2000 µg/mL: 61%

## N#CCCO [β-Hydroxypropionitrile]
[1]; [7]
  activity at 2000 µg/mL: 78%
